Reference: patent US20110105457A1, “HETEROCYCLIC COMPOUND HAVING INHIBITORY ACTIVITY ON PI3K” (SHIONOGI & CO., LTD., priority 2008, published 2011)

Target: PI-3 kinase γ (Homo sapiens, UniProt P48736)
Assay: PI3Kγ inhibitory activity, PI3-kinase HTRF assay (Millipore)
Assay type: biochemical
Conditions: 0.5 h; compound 50 μM; read-out: Inhibition ratio % (50 μM)
Description: (Method) The PI3Kγ inhibitory activity of a compound was evaluated using PI3-kinase HTRF™ assay (Millipore) according to the following procedure.
To each well of a testing plate was added 5 μL of a compound solution comprising 10% DMSO (200 μM as the concentration of the compound), 5 μL of 40 μM phosphatidylinositol (4,5)-bisphosphate/20 mM MgCl2/10 mM DTT, and 5 μL of 80 μg/mL PI-3 kinase γ/10 mM MgCl2/5 mM DTT, and then stood for 10 minutes.
Then, 5 μL of 40 μM ATP/10 mM MgCl2/5 mM DTT was added thereto. After reacting for 30 minutes at room temperature, 5 μL of a solution comprising EDTA and biotinylated phosphatidylinositol (3,4,5)-triphosphate was added to quench the reaction.
5 μL of a detection reagent comprising a europium-labeled anti-GST antibody, the GST-tagged PH domain, and allophycocyanin-labeled streptavidin was added thereto. After 18 hours, HTRF (excitation wavelength: 330 nm, measuring wavelengths: 620 nm and 665 nm) was measured.
A value of dividing an amount of fluorescence obtained at the measuring wavelength 665 nm by an amount of fluorescence obtained at 620 nm was defined as an HTRF ratio. The HTRF ratio in the absence of a compound was defined as 100% activity, and the HTRF ratio in the absence of PI-3 kinase γ was defined as 0% activity to calculate an inhibition ratio.

Sequence of PI-3 kinase γ (P48736 whole entry): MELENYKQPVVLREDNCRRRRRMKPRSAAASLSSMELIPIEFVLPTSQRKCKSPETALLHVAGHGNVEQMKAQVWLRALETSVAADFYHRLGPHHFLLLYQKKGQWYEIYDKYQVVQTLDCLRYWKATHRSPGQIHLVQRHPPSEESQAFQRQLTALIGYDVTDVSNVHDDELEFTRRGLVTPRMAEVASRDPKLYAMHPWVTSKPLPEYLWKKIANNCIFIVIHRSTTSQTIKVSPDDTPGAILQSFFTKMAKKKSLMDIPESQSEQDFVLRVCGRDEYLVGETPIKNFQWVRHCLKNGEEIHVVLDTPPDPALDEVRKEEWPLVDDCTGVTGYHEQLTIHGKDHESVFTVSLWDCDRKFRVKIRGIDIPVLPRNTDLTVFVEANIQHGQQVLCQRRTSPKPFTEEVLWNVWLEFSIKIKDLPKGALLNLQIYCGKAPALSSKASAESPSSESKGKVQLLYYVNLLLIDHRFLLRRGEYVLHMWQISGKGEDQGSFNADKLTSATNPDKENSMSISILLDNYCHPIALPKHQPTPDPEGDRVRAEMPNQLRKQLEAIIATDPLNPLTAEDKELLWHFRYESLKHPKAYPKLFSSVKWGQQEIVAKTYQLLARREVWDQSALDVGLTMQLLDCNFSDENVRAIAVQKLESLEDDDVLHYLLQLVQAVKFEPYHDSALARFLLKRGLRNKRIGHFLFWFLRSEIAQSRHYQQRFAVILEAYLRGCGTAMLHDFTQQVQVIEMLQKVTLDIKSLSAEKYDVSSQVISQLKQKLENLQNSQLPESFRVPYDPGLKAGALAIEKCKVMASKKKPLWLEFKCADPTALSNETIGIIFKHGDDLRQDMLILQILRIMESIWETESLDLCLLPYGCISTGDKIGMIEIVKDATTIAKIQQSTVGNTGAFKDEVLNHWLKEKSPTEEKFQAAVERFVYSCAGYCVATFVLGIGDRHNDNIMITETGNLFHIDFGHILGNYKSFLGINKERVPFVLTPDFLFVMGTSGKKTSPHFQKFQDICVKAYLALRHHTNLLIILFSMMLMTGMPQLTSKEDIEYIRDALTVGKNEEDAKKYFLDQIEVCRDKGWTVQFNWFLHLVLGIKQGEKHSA

Compound `CNC(=O)Nc1cn2nc(Cl)ccc2n1` [Compound I-1] has an inhibition at 50 µM of 72%.
Compound `CNC(=O)Nc1cn2nc(NC(=O)C3CCCC3)ccc2n1` [Compound I-4] has an inhibition at 50 µM of 57%.
In the case of `CNC(=O)Nc1cn2nc(NC(=O)Nc3ccccc3)ccc2n1` [Compound I-5], the inhibition at 50 µM is reported as 60%.
`CNC(=O)Nc1cn2nc(N3CCCC3=O)ccc2n1` [Compound I-6] showed an inhibition at 50 µM of 67%.
`CNC(=O)Nc1cn2nc(Nc3ccccc3)ccc2n1` [Compound I-7] showed an inhibition at 50 µM of 77%.
In the case of `CNC(=O)Nc1cn2nc(-c3ccccc3)ccc2n1` [Compound I-9], the inhibition at 50 µM is reported as 82%.
For `CCOC(=O)c1ccc2nc(NC(=O)NC)cn2n1` [Compound I-13], the inhibition at 50 µM was 87%.
Work on `CNC(=O)Nc1cn2nc(C(=O)NCc3ccccc3)ccc2n1` [Compound I-15] yielded an inhibition at 50 µM of 74%.
`CNC(=O)Nc1cn2nc(C(=O)c3cccc(OC)c3)ccc2n1` [Compound I-17] was tested, and the inhibition at 50 µM was 76%.
`CNC(=O)Nc1cn2nc(Sc3ccccc3)ccc2n1` [Compound I-18] was tested, and the inhibition at 50 µM was 81%.
Work on `CNC(=O)Nc1cn2nc(Oc3ccccc3)ccc2n1` [Compound I-19] yielded an inhibition at 50 µM of 65%.
Work on `CNC(=O)Nc1cn2nc(Cc3ccccc3)ccc2n1` [Compound I-20] yielded an inhibition at 50 µM of 62%.
In the case of `CNC(=O)Nc1cn2nc(COc3cccc(OC)c3)ccc2n1` [Compound I-22], the inhibition at 50 µM is reported as 56%.
`COc1cccc(-c2ccc3nc(Nc4ccccc4)cn3n2)c1` [Compound I-27] showed an inhibition at 50 µM of 69%.
With `CNC(=O)Nc1cn2nc(C(=O)N3CCC(C(=O)O)CC3)ccc2n1` [Compound I-32] the inhibition at 50 µM was 70%.
With `CNC(=O)Nc1cn2nc(C(=O)Nc3cccc(C(=O)O)c3)ccc2n1` [Compound I-33] the inhibition at 50 µM was 57%.
Work on `CNC(=O)Nc1cn2nc(-c3cccc(C(=O)OC)c3)ccc2n1` [Compound I-35] yielded an inhibition at 50 µM of 77%.
With `CNC(=O)Nc1cn2nc(-c3cccc(OC)c3)ccc2n1` [Compound I-36] the inhibition at 50 µM was 90%.
In the case of `CNC(=O)Nc1cn2nc(-c3ccsc3)ccc2n1` [Compound I-38], the inhibition at 50 µM is reported as 91%.
`CNC(=O)Nc1cn2nc(Nc3cccc(OC)c3)ccc2n1` [Compound I-39] was tested, and the inhibition at 50 µM was 69%.
For `CNC(=O)Nc1cn2nc(C(=O)Nc3ccc(O)cc3)ccc2n1` [Compound I-41], the inhibition at 50 µM was 83%.
Work on `CNC(=O)Nc1cn2nc(C(=O)Nc3ccccc3)ccc2n1` [Compound I-43] yielded an inhibition at 50 µM of 79%.
`CNC(=O)Nc1cn2nc(C(=O)NCc3ccc(OC)cc3)ccc2n1` [Compound I-44] was tested, and the inhibition at 50 µM was 57%.
For `CNC(=O)Nc1cn2nc(C(=O)Nc3ccc4[nH]ccc4c3)ccc2n1` [Compound I-45], the inhibition at 50 µM was 74%.
Work on `CNC(=O)Nc1cn2nc(C(=O)Nc3ccc(Cl)cc3)ccc2n1` [Compound I-46] yielded an inhibition at 50 µM of 76%.
`CCCNC(=O)c1ccc2nc(NC(=O)NC)cn2n1` [Compound I-48] gave an inhibition at 50 µM of 83%.
For `CNC(=O)Nc1cn2nc(C(=O)NCCOC)ccc2n1` [Compound I-49], the inhibition at 50 µM was 64%.
`CNC(=O)Nc1cn2nc(C(=O)NC3CCCC3)ccc2n1` [Compound I-50] was tested, and the inhibition at 50 µM was 89%.
`CNC(=O)Nc1cn2nc(C(=O)Nc3ccc(C(=O)O)cc3)ccc2n1` [Compound I-52] showed an inhibition at 50 µM of 80%.
For `CNC(=O)Nc1cn2nc(Nc3cccc(OCc4ccccc4)c3)ccc2n1` [Compound I-53], the inhibition at 50 µM was 74%.
Compound `CNC(=O)Nc1cn2nc(Nc3ccc(OC)cc3)ccc2n1` [Compound I-54] has an inhibition at 50 µM of 85%.
`CNC(=O)Nc1cn2nc(-c3cccc(C(C)=O)c3)ccc2n1` [Compound I-55] was tested, and the inhibition at 50 µM was 85%.
For `CNC(=O)Nc1cn2nc(-c3ccc(C(C)=O)cc3)ccc2n1` [Compound I-56], the inhibition at 50 µM was 77%.
`CNC(=O)Nc1cn2nc(-c3cccc(N)c3)ccc2n1` [Compound I-57] gave an inhibition at 50 µM of 84%.
`CNC(=O)Nc1cn2nc(-c3cc4ccccc4s3)ccc2n1` [Compound I-58] showed an inhibition at 50 µM of 70%.
For `CNC(=O)Nc1cn2nc(-c3cccc(Cl)c3)ccc2n1` [Compound I-59], the inhibition at 50 µM was 52%.
With `CNC(=O)Nc1cn2nc(-c3ccc(Cl)cc3)ccc2n1` [Compound I-60] the inhibition at 50 µM was 64%.
`CNC(=O)Nc1cn2nc(-c3ccc(OC)cc3)ccc2n1` [Compound I-63] was tested, and the inhibition at 50 µM was 91%.
In the case of `CNC(=O)Nc1cn2nc(-c3cccc(C)c3)ccc2n1` [Compound I-65], the inhibition at 50 µM is reported as 79%.
For `CNC(=O)Nc1cn2nc(-c3ccc(C)cc3)ccc2n1` [Compound I-66], the inhibition at 50 µM was 77%.
`CNC(=O)Nc1cn2nc(-c3ccc(Cl)c(Cl)c3)ccc2n1` [Compound I-67] gave an inhibition at 50 µM of 72%.
In the case of `CNC(=O)Nc1cn2nc(-c3ccc(-c4ccccc4)cc3)ccc2n1` [Compound I-68], the inhibition at 50 µM is reported as 90%.
`CNC(=O)Nc1cn2nc(-c3cccc(CO)c3)ccc2n1` [Compound I-69] showed an inhibition at 50 µM of 89%.
In the case of `CNC(=O)Nc1cn2nc(/C=C/c3ccccc3)ccc2n1` [Compound I-70], the inhibition at 50 µM is reported as 78%.
In the case of `CNC(=O)Nc1cn2nc(-c3ccc(C#N)cc3)ccc2n1` [Compound I-71], the inhibition at 50 µM is reported as 69%.
In the case of `CNC(=O)Nc1cn2nc(-c3ccc(S(C)(=O)=O)cc3)ccc2n1` [Compound I-72], the inhibition at 50 µM is reported as 66%.
`CNC(=O)Nc1cn2nc(-c3ccc(NS(C)(=O)=O)cc3)ccc2n1` [Compound I-73] showed an inhibition at 50 µM of 70%.
`CNC(=O)Nc1cn2nc(-c3cccc(NS(C)(=O)=O)c3)ccc2n1` [Compound I-74] was tested, and the inhibition at 50 µM was 89%.
With `CNC(=O)Nc1cn2nc(-c3ccoc3)ccc2n1` [Compound I-76] the inhibition at 50 µM was 72%.
Work on `CNC(=O)Nc1cn2nc(-c3ccc(C(N)=O)cc3)ccc2n1` [Compound I-77] yielded an inhibition at 50 µM of 64%.
With `CNC(=O)Nc1cn2nc(C3=CCCC3)ccc2n1` [Compound I-79] the inhibition at 50 µM was 81%.
In the case of `CNC(=O)Nc1cn2nc(-c3ccc(NC(=O)OC)cc3)ccc2n1` [Compound I-80], the inhibition at 50 µM is reported as 57%.
For `CNC(=O)Nc1cn2nc(-c3cccc(C(=O)N(C)C)c3)ccc2n1` [Compound I-82], the inhibition at 50 µM was 79%.
For `CNC(=O)Nc1cn2nc(Nc3cccc(O)c3)ccc2n1` [Compound I-85], the inhibition at 50 µM was 111%.
`CNC(=O)Nc1cn2nc(C(=O)Nc3ccccc3OCCN)ccc2n1` [Compound I-98] was tested, and the inhibition at 50 µM was 72%.
`CNC(=O)Nc1cn2nc(NC(C)=O)ccc2n1` [Compound I-101] gave an inhibition at 50 µM of 59%.
`CNC(=O)Nc1cn2nc(NC(=O)c3cccc(Cl)c3)ccc2n1` [Compound I-103] showed an inhibition at 50 µM of 60%.
Compound `CNC(=O)Nc1cn2nc(NC(=O)c3ccccc3)ccc2n1` [Compound I-104] has an inhibition at 50 µM of 55%.
For `CNC(=O)Nc1cn2nc(Nc3cccc(C(=O)OC)c3)ccc2n1` [Compound I-105], the inhibition at 50 µM was 73%.
`COc1cccc(-c2ccc3nc(NC(=O)NCCc4ccccc4)cn3n2)c1` [Compound I-107] showed an inhibition at 50 µM of 74%.
`COc1cccc(-c2ccc3nc(NC(=O)Nc4cccs4)cn3n2)c1` [Compound I-108] showed an inhibition at 50 µM of 89%.
For `COc1cccc(-c2ccc3nc(NC(=O)NC4CCCCC4)cn3n2)c1` [Compound I-109], the inhibition at 50 µM was 99%.
For `CCCNC(=O)Nc1cn2nc(-c3cccc(OC)c3)ccc2n1` [Compound I-110], the inhibition at 50 µM was 81%.
In the case of `COc1cccc(-c2ccc3nc(NC(=O)Nc4ccsc4)cn3n2)c1` [Compound I-111], the inhibition at 50 µM is reported as 55%.
With `CCOC(=O)CNC(=O)Nc1cn2nc(-c3cccc(OC)c3)ccc2n1` [Compound I-112] the inhibition at 50 µM was 84%.
In the case of `COc1cccc(-c2ccc3nc(NC(=O)NC(C)C)cn3n2)c1` [Compound I-113], the inhibition at 50 µM is reported as 86%.
For `COc1cccc(-c2ccc3nc(NC(=O)NC4CCCC4)cn3n2)c1` [Compound I-115], the inhibition at 50 µM was 78%.
`COc1cccc(-c2ccc3nc(NC(=O)NCCCl)cn3n2)c1` [Compound I-116] was tested, and the inhibition at 50 µM was 76%.
`CCCCNC(=O)Nc1cn2nc(-c3cccc(OC)c3)ccc2n1` [Compound I-117] showed an inhibition at 50 µM of 85%.
`CNC(=O)Nc1cn2nc(C(=O)N[C@@H](C)C(N)=O)ccc2n1` [Compound I-121] was tested, and the inhibition at 50 µM was 71%.
In the case of `CNC(=O)Nc1cn2nc(N3CCOC3=O)ccc2n1` [Compound I-122], the inhibition at 50 µM is reported as 61%.
Compound `CNC(=O)Nc1cn2nc(-c3cccc(NC(C)=O)c3)ccc2n1` [Compound I-124] has an inhibition at 50 µM of 105%.
`CNC(=O)Nc1cn2nc(-c3cccc(C(C)C)c3)ccc2n1` [Compound I-127] showed an inhibition at 50 µM of 79%.
In the case of `CNC(=O)Nc1cn2nc(-c3cccc([N+](=O)[O-])c3)ccc2n1` [Compound I-128], the inhibition at 50 µM is reported as 50%.
Work on `CNC(=O)Nc1cn2nc(-c3cccc(COC(C)(C)C)c3)ccc2n1` [Compound I-131] yielded an inhibition at 50 µM of 70%.
`CNC(=O)Nc1cn2nc(-c3cccc(COC)c3)ccc2n1` [Compound I-132] was tested, and the inhibition at 50 µM was 78%.
`CNC(=O)Nc1cn2nc(-c3ccc(-c4ccccc4)s3)ccc2n1` [Compound I-133] was tested, and the inhibition at 50 µM was 65%.
Compound `CNC(=O)Nc1cn2nc(-c3cccc(C#N)c3)ccc2n1` [Compound I-134] has an inhibition at 50 µM of 59%.
`CNC(=O)Nc1cn2nc(-c3cccc(SC)c3)ccc2n1` [Compound I-135] was tested, and the inhibition at 50 µM was 80%.
With `CNC(=O)Nc1cn2nc(-c3cccc(C(=O)N4CCOCC4)c3)ccc2n1` [Compound I-138] the inhibition at 50 µM was 75%.
Work on `CNC(=O)Nc1cn2nc(-c3cccc(C(=O)NC(C)C)c3)ccc2n1` [Compound I-139] yielded an inhibition at 50 µM of 79%.
`CNC(=O)Nc1cn2nc(-c3cccc(C(=O)NCC(C)C)c3)ccc2n1` [Compound I-140] gave an inhibition at 50 µM of 60%.
